Measurements from patent US20050197402A1 (priority 2004, published 2005).

Test: Modulated differential scanning calorimetry (MDSC/DSC), thermal stability / decomposition
Type: physicochemical
Conditions: for onset of decomposition: MDSC data
Description: Differential Scanning Calorimetry (DSC) measures heat flow as a function of time or temperature and is used to study material transformation whether they be physical, such as phase changes, or chemical, such as decomposition. There are several parameters that can be obtained from a DSC thermogram. In the present work, the focus was on the onset temperature, the temperature of the peak minimum, and the peak width. DSC information is useful in understanding the purity and nature of material. For example, when a pure crystalline substance melts, the melting point is sharp. In DSC, that sharpness is shown by a narrow melting peak in the thermogram. If there are impurities or defects in the crystalline nature, the melting takes place at lower temperatures and over a larger range of temperatures. In DSC, the impurities are shown by a lower onset temperature and peak temperature, and a broader peak in the thermogram. When there are discrete impurities, they can melt at their melting points. In DSC, discrete impurities can be shown by additional peaks in the thermogram.
While a decomposition curve is usually broader and can be more complicated, some of the same phenomena are seen as with melting. Impurities and defects will cause broader and lower temperature peaks. Discrete impurities can show their own decomposition peaks.
These were made at slightly different stoichiometries. The onset temperature, the temperature at peak minimum, and the peak width are labeled.

[1] = modulated DSC thermogram, spray-dried polymorph of PMC2, K:Mg ratio less than 4.0

Compound	onset of decomposition	endothermic peak for decomposition: onset temperature [1]	endothermic peak for decomposition: peak minimum temperature [1]	endothermic peak for decomposition: peak width [1]	DSC decomposition behaviour (in words) (spray-dried sample in a vented pan, compared to sample dried in an oven or at room temperature)
O=C([O-])CC(O)(CC(=O)[O-])C(=O)[O-].O=C([O-])CC(O)(CC(=O)[O-])C(=O)[O-].[K+].[K+].[K+].[K+].[Mg+2] [PMC2, potassium magnesium citrate]	approximately 310 °C	greater than 320 °C	greater than 327 °C	less than 9 °C	
O=C([O-])CC(O)(CC(=O)[O-])C(=O)[O-].O=C([O-])CC(O)(CC(=O)[O-])C(=O)[O-].[K+].[K+].[K+].[K+].[Mg+2] [PMC, potassium magnesium citrate]					decomposed at a much lower temperature and with a broader decomposition peak
O=C([O-])CC(O)(CC(=O)[O-])C(=O)[O-].[K+].[K+].[K+] [potassium citrate, reference compound]	260 °C				
magnesium citrate [reference compound]	250 °C				
